Results reported in patent US20240139280A1, “USE OF HIF-1-ALPHA INHIBITORS IN CANCER IMMUNOTHERAPY” (ONCOC4, INC., priority 2021, published 2024).

Experiments:
[1] = system: PD-L1 expression in E0771 cells; type: cell-based, murine
[2] = system: core HRE motif EGFP reporter in 4T1-HRE-EGFP cells; type: cell-based, murine
[3] = system: intestinal tissues; details: in vivo
Procedure: (§1) Experimental design for GI-irAE induction by Ipilimumab, with or without additional therapies. 10-day old CTLA4h/h mice received 0.1 mg of Ipilimumab on days 10, 13, 16, and 19 after birth to induce the GI-irAE phenotype, measured by FITC-dextran assay on day 32. On day 33, the mice were sacrificed for histological and immunofluorescent analysis of intestinal tissues, and flow cytometry, etc. […] Aggregate data from 4 experiments are presented. […] Starting on day 10 after birth, the mice began receiving treatment with vehicle (n=33), echinomycin (n=27), Ipilimumab (n=33), Ipilimumab+echinomycin (n=26), Ipilimumab+RMP1-14 (n=27), Ipilimumab+echinomycin+RMP1-14 (n=28), or Ipilimumab+echinomycin+XMG1.2 (n=15). Echinomycin (10 μg/kg), Ipilimumab (0.1 mg/mouse/injection), RMP1-14 (0.2 mg/mouse/injection), and XMG1.2 (0.2 mg/mouse/injection). Vehicle or echinomycin (10 μg/kg) were given once every three days for 8 doses, and mAbs (0.1 mg/mo. for Ipilimumab; 0.2 mg/mo. for RMP1-14 and XMG1.2) once every three days for 4 doses. Data collection was performed as described in (FIG. 8A). […] Serum FITC-dextran intensity shown as mean±SEM for individual mice pooled from 3 independent experiments. […] Statistics were determined by unpaired t tests (two-tailed) for group means. […] Representative H&E images from intestines of Ipilimumab-treated mice additionally treated with echinomycin (panel i), RMP1-14 (panels ii-iv), echinomycin+RMP1-14 (panels v-vi), or echinomycin+XMG1.2 (panels vii-viii). […] Representative immunofluorescence images showing relative expression of PD-L1 in jejunum of mice from different treatment groups.
(§2) Therefore, we used intestinal permeability to orally administrated FITC-dextran and histology as the readout for irAE (FIG. 8A).

[4] = system: intestinal tissues; assay: Ipilimumab-induced GI-irAE in human CTLA4 knockin mice (FITC-dextran, histology, PD-L1); details: Ipilimumab 0.1 mg/mouse/injection; echinomycin 10 μg/kg added to Ipilimumab
Procedure: as §1, §2

Compound: [Cl-].[Cl-].[Co+2] [CoCl2]
- PD-L1 expression [1]: further upregulated PD-L1
- EGFP reporter fluorescence activity [2]: marked increase in EGFP reporter fluorescence activity

Compound: Ipilimumab: Recombinant anti-CTLA-4 antibody Ipilimumab provided by Lakepharma Inc.
- intestinal inflammation / pathology (histological analysis) [3]: induced intestinal inflammation
- PD-L1 expression in the intestines [4]: elevated PD-L1 expression
